Test results taken from ChEMBL document CHEMBL1201862, “PubChem BioAssay data set” (2004).
Active and inactive are the calls of the source.

Assays:
[1] = biological target: T1, Corticotropin-releasing factor receptor 2/Corticotropin-releasing factor-binding protein (Homo sapiens, UniProt P24387+Q13324); assay: Dose Response confirmation of uHTS hits for small molecule antagonists of the CRF-binding protein and CRF-R2 receptor complex.; type: functional; conditions: read-out: IC50_Mean
T1 sequence (Q13324 whole entry): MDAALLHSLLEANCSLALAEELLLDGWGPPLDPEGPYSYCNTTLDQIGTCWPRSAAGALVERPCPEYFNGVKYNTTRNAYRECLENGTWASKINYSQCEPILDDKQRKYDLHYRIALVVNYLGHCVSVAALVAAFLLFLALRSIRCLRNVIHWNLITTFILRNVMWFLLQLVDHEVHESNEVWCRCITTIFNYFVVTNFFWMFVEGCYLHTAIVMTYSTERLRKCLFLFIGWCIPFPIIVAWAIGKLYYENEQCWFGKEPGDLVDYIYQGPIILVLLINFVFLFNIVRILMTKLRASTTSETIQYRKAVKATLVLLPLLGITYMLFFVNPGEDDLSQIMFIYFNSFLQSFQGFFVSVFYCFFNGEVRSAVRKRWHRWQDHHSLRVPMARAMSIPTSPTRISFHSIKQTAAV
T1 sequence (P24387 whole entry): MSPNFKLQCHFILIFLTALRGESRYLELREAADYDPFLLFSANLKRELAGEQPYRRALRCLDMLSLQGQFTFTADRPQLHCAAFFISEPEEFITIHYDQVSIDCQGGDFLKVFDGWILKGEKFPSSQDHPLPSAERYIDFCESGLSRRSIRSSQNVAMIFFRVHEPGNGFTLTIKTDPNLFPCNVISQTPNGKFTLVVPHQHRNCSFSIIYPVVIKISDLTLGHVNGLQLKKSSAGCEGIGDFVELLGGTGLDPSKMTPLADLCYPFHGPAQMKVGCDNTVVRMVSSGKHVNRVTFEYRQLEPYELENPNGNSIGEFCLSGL

[2] = biological target: T1, Corticotropin-releasing factor receptor 2/Corticotropin-releasing factor-binding protein; assay: activators of CRF receptor 2 with binding protein – uHTS hits, confirmation (AID 602473); type: functional; conditions: read-out: EC50_Mean
[3] = biological target: Paired box protein Pax-8 (Homo sapiens, UniProt Q06710); assay: inhibitors of PAX8-driven TPO luciferase reporter, dose response, RMG-I cells, cherry-pick (AID 687027); type: functional, cell-based;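 further: luciferase reporter driven by Pax8 target thyroperoxidase promoter measured by SteadyGlo luminescence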
[4] = biological target: Large T antigen (Simian virus 40, UniProt P03070); type: functional, Betapolyomavirus macacae;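 further: Confirmatory-stage PubChem screen for compounds that inhibit SV40 T antigen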
[5] = biological target: Cytochrome P450 2D6 (Homo sapiens, UniProt P10635);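 further: CYP2D6 member of a cytochrome P450 panel assay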
[6] = test system: Streptococcus sp. 'group A'; assay: growth inhibition of control SK(-) GAS strain, dose response, counter-screen for streptokinase expression inhibitor project, luminescence, kanamycin, BacTiterGlo, confirmation (AID 1900); type: functional, organism-based
[7] = biological target: T2, Streptokinase A (Streptococcus pyogenes serotype M1, UniProt P10520); assay: S. pyogenes streptokinase expression inhibitors, potency, dose response, plasminogen activation absorbance, OD405 (AID 1914); type: functional, Streptococcus pyogenes M1 GAS;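 further: secreted streptokinase activity via plasminogen activation per viability signal from cell pellet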
T2 sequence (P10520 whole entry): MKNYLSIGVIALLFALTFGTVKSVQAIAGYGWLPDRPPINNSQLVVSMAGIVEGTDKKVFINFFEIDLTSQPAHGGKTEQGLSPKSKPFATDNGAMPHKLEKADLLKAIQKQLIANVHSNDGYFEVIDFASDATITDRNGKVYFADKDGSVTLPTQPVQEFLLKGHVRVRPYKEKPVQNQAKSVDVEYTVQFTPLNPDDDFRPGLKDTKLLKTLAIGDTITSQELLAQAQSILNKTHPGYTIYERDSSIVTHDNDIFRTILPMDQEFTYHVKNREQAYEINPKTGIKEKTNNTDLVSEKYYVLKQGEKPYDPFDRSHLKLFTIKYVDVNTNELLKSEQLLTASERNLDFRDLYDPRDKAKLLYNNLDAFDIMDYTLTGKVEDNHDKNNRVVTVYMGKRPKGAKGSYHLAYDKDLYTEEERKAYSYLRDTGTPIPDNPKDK

[8] = test system: Streptococcus; assay: Group A Streptococcus viability loss, dose response, counter-screen for streptokinase expression inhibitor project, luminescence, BacTiterGlo (AID 1915); type: functional, organism-based;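 further: potency for reduction of bacterial viability or growth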
[9] = biological target: T3, Replicative DNA helicase DnaB (Mycobacterium tuberculosis, UniProt P9WMR3); assay: DnaB intein splicing inhibitors, dose response, biochemical, cell-free fluorescence (AID 449749); type: functional
T3 sequence (P9WMR3 whole entry): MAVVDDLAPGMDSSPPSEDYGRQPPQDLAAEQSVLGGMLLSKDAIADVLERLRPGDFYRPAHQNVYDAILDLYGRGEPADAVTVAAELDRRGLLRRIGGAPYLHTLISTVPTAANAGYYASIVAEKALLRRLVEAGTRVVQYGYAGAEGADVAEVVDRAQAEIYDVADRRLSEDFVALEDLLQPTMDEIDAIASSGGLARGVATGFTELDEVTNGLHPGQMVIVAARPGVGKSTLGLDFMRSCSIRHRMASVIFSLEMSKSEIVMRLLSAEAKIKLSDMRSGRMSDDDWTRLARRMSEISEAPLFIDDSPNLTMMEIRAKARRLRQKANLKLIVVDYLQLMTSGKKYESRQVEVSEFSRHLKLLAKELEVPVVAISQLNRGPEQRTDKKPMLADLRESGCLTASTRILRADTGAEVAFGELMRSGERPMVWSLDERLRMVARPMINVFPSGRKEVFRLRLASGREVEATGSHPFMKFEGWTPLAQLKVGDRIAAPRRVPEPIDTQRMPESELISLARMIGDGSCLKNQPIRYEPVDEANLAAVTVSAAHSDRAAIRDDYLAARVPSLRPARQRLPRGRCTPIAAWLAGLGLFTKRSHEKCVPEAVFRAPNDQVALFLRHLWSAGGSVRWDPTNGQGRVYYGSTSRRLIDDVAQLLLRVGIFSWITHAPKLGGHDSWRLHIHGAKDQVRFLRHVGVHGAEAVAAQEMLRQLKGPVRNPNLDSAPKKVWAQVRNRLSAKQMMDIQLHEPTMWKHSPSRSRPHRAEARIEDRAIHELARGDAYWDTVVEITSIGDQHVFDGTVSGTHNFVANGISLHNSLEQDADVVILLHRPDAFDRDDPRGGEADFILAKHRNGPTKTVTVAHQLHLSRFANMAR

[10] = biological target: T4, Protein RecA (Mycobacterium tuberculosis, UniProt P9WHJ3); assay: Fluorescence Cell-Free Homogeneous Dose Retest to Identify Inhibitors of RecA-Intein Splicing Activity. [Related pubchem assays (depositor defined):AID2097, AID2223, AID489010, AID492950]; type: functional
T4 sequence (P9WHJ3 whole entry): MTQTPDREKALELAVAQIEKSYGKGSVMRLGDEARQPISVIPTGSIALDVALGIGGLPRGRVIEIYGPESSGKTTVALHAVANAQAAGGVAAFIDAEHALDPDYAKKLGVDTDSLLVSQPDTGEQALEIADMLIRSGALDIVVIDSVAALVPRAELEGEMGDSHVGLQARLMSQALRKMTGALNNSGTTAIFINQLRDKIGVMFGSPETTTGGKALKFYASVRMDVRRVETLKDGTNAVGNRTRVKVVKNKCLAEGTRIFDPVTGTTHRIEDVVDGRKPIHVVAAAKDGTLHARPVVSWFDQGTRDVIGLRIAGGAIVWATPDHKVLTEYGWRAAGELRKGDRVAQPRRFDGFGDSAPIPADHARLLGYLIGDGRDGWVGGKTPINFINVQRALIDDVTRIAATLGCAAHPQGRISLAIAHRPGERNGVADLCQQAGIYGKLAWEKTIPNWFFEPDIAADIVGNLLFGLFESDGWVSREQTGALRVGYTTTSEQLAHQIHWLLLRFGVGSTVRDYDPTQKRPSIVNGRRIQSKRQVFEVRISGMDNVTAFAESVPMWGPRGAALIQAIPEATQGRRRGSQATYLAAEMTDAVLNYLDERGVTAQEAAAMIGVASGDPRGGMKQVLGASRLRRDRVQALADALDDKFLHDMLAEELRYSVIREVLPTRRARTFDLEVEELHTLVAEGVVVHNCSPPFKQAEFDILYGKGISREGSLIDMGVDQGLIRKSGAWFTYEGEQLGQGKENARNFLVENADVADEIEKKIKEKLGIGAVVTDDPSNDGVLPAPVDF

[11] = Luminescence Cell-Based Dose Response HTS to Identify Inhibitors of 5'UTR Stem-Loop Driven Prion Protein mRNA Translation in H4 Neuroglioblastoma Cells. [Related pubchem assays: 1827 (Project Summary), 1813 (Primary HTS)]; type: functional
[12] = inhibitors of SNCA 5'UTR-driven reporter translation, confirmation, H4 neuroglioma cells, luminescence (AID 1988); type: functional, cell-based
[13] = Luminescence Cell-Based Dose Confirmation HTS to Identify Activators of 5'UTR Stem-Loop Driven Alpha-Synuclein mRNA Translation in H4 Neuroglioblastoma Cells. [Related pubchem assays: 1829 (Project Summary), 1814 (Primary HTS)]; type: functional
[14] = Luminescence Cell-Based Dose Response HTS to Identify Activators of Luciferase Translation or Activity in H4 […] Cells. [Related pubchem assays: 1829 (Project Summary), 1814 (Primary HTS)]; type: functional
[15] = test system: H4; assay: Luminescence Cell-Based Dose Response HTS to Identify Activators of 5'UTR Stem-Loop Driven Prion Protein mRNA Translation in H4 Neuroglioblastoma Cells. [Related pubchem assays: 1829 (Project Summary), 1814 (Primary HTS)]; type: functional; conditions: Homo sapiens
[16] = biological target: FAD-linked sulfhydryl oxidase ALR (Homo sapiens, UniProt P55789); assay: inhibitors of human ALR sulfhydryl oxidase, dose response, biochemical, H2O2 detection, luminescence, cherry-pick (AID 493248)
[17] = biological target: T5, Rac GTPase-activating protein 1 (Homo sapiens, UniProt Q9H0H5); assay: MgcRacGAP GTPase-activating activity inhibitors, confirmation, biochemical, ADP Hunter fluorescence, primary and confirmatory (AID 624330); type: functional
T5 sequence (Q9H0H5 whole entry): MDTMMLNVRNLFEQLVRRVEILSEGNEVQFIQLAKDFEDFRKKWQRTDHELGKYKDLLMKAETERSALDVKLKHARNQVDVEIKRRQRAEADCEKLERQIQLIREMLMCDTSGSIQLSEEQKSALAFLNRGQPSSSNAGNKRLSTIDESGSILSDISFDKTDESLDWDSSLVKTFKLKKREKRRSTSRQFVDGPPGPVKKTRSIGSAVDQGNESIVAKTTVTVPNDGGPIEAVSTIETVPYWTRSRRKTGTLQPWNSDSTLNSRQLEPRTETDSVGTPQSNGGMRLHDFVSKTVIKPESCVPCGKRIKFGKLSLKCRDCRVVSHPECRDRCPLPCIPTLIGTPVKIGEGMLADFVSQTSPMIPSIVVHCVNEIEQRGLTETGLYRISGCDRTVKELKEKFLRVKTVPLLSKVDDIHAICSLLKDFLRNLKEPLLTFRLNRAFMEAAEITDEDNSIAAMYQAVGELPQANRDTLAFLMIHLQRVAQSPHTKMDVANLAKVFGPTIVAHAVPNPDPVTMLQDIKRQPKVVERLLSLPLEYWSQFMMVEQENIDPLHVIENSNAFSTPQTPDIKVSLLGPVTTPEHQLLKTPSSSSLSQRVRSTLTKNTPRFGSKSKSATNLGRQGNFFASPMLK

Large T antigen, sequence (P03070 whole entry): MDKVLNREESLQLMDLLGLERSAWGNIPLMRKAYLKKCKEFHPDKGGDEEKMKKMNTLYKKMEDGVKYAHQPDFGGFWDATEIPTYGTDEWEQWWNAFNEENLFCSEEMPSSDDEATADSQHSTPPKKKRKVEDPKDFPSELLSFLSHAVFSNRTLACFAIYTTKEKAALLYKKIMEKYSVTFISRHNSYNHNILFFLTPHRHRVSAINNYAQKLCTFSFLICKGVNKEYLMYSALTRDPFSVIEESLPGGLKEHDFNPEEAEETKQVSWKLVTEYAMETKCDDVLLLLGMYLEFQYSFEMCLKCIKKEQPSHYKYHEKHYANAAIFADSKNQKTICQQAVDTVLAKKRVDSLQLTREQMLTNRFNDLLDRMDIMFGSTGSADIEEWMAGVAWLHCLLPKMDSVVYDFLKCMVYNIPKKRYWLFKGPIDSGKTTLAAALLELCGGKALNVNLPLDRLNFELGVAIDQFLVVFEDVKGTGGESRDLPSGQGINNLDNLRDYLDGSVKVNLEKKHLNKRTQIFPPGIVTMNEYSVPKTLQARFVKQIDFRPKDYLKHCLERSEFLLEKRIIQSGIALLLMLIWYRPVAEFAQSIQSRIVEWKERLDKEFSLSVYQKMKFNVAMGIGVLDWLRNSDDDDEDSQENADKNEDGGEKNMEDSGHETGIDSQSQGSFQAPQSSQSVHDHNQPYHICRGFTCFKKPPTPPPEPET
FAD-linked sulfhydryl oxidase ALR, sequence (P55789 whole entry): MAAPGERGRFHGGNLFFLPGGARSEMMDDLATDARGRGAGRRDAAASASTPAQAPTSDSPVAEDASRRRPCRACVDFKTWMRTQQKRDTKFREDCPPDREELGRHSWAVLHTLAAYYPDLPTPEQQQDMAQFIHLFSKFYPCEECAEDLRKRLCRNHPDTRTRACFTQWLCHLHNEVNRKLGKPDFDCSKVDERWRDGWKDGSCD
Paired box protein Pax-8, sequence (Q06710 whole entry): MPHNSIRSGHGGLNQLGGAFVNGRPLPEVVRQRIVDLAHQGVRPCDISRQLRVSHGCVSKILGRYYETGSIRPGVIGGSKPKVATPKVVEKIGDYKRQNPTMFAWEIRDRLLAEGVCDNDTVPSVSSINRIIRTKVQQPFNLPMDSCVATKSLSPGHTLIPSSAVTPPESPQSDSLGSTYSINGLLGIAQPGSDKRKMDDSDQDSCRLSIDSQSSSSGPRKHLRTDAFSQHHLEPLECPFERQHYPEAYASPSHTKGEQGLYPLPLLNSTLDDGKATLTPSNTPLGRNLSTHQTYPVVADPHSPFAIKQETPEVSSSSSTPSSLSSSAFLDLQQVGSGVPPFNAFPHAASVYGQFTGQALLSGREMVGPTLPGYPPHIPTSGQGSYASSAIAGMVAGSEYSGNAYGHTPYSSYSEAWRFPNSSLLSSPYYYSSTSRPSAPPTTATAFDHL
Cytochrome P450 2D6, sequence (P10635 whole entry): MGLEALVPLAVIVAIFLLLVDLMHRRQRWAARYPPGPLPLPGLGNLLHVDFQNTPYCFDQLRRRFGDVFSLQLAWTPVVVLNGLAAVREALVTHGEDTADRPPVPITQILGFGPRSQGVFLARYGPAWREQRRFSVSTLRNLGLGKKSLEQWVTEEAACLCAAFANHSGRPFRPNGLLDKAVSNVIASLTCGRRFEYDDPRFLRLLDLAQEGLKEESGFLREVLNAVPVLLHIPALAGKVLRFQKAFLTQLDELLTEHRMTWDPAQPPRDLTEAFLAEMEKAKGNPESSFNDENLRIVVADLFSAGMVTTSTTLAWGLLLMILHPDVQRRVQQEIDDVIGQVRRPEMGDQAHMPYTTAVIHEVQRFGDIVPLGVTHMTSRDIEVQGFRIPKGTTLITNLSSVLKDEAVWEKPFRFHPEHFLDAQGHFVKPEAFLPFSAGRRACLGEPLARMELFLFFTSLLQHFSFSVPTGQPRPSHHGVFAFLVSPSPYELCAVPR

Compound | IC50 [1] | EC50 [2] | IC50 [4] | further results
CCOC(=O)C1(C(=O)OCC)CCN(S(=O)(=O)c2ccccc2)CC1 | > 47.1 µM (inactive) | > 53 µM (inactive) |  | 
COc1ccc(S(=O)(=O)N2CCCCN3[C@H](C2)[C@@H](c2ccc(C#CC(C)C)cc2)[C@@H]3CO)cc1 |  |  |  | AC50 [3]: 6.14 µM (active)
N#C/C(=C\c1ccc(O)c(O)c1)C(=O)NCCc1ccccc1 |  |  | 7.1 µM (active) | AC50 [5]: 39.8 µM (inconclusive)
Cc1cc(SCC(=O)Nc2cccc(S(N)(=O)=O)c2)c(C)cc1Br | > 47.1 µM (inactive) | > 53 µM (inactive) |  | 
CCn1c(SCC(=O)N/N=C/c2ccc(O)c(OC)c2)nc2ccccc21 |  |  | 20.4 µM (active) | 
Nc1ccc(NC(=O)NC2CCCCC2)cc1 |  |  | 10.5 µM (active) | 
COc1ccc(NC(=O)CN2CCC3(O)CCCCC3C2c2cc(OC)ccc2OC)cc1 (stereo not given) | > 47.1 µM (inactive) | > 53 µM (inactive) |  | 
CCCN1CCc2c(sc(NC(=O)c3ccc(S(=O)(=O)N4CCN(C(=O)OCC)CC4)cc3)c2C(N)=O)C1 |  | 15.2 µM (active) |  | EC50 [6]: 51.8 µM (active); EC50 [7]: > 150 µM (not active); EC50 [8]: > 150 µM (not active)
CCOc1cc(C(c2c(C)n[nH]c2O)c2c(C)n[nH]c2O)ccc1OC(=O)c1cccc([N+](=O)[O-])c1 |  |  | > 100 µM (active) | AC50 [9]: 0.365 µM (active); EC50 [10]: 0.205 µM (active)
O=C(NC(=S)N1CCN(c2ccc(O)cc2)CC1)c1cccs1 |  |  | 5.39 µM (active) | 
CCOc1ccc(/C=N/NC(=O)CSc2ccccn2)cc1O |  |  | 17.7 µM (active) | 
Nc1nc(-c2ccc3c(c2)OCCO3)cs1 | > 47.1 µM (inactive) | > 53 µM (inactive) |  | 
O=C(O)c1cccc(N/N=C/c2cccc3ccccc23)c1 |  |  |  | EC50 [11]: 4.51 µM (active); EC50 [12]: 1.5 µM (active)
COc1cc(C#CC#CCN2CCCCC2)ccc1O |  |  | 10.3 µM (active) | EC50 [13]: 6.87 µM (active); EC50 [14]: 6.95 µM (active); EC50 [15]: > 120 µM (not active); AC50 [16]: 3.57 µM (active)
Cc1ccc(S(=O)(=O)NN=Cc2c(O)ccc3ccccc23)cc1 | > 47.1 µM (inactive) | > 53 µM (inactive) |  | 
CCCC1=Nc2nc(C)nn2C(c2cccnc2)/C1=C(\O)OCC (stereo not given) | > 47.1 µM (inactive) | > 53 µM (inactive) |  | 
CN1C(=O)NC(c2ccc(O)cc2)C2=C1CN(c1ccc(O)cc1)C2=O (stereo not given) |  |  | 8.64 µM (active) | IC50 [17]: 34.6 µM (active)
CC(=O)Nc1ccc(S(=O)(=O)Nc2nc3ccccc3nc2Nc2ccc(N)cc2)cc1 |  |  | 18.5 µM (active) | 
CCOC(=O)C1=C(O)/C(=C\c2ccc(O)c(OCC)c2)N=C1C |  |  | 9.94 µM (active) | IC50 [17]: 43.3 µM (active)
CC(C)CNC(=O)CN1c2cccc3cccc(c23)S1(=O)=O | > 47.1 µM (inactive) | > 53 µM (inactive) |  | 
